Data set [1] concerns A549. In words: Drug uptake in human A549 cells assessed as increase in fluorescence intensity at 1 uM after 24 hrs by fluorescence analysis relative to control. It counts as ADME, cell-based. Particulars: a549, 24 h.
The subject of data set [2] is A549. In words: Antisense activity in human A549 cells assessed as down regulation of p53 protein at 1 uM incubated for 8 hrs in serum-free medium followed by 24 hrs incubation in serum-containing medium by Western blotting analysis. It counts as functional, cell-based.
In data set [3] the test system is A549. In words: Drug uptake in human A549 cells after 24 hrs by confocal laser-scanning microscopy. It counts as ADME, cell-based. Particulars: a549, 24 h.
Data set [4] has as its system A549. In words: Drug uptake in human A549 cells at 1 to 4 uM by confocal laser-scanning microscopy. The format is ADME, cell-based. Particulars: a549, 4 µM.
Data set [5] has as its system A549. In words: Drug uptake in human A549 cells assessed as increase in fluorescence intensity at 1 uM after 2 hrs by fluorescence analysis using fluorescein labelled compound relative to oligonucleotide treated control. The format is ADME, cell-based. Particulars: a549, 2 h.
The test system of data set [6] is A549. In words: Drug uptake in human A549 cells assessed as increase in fluorescence intensity at 1 uM after 8 hrs by fluorescence analysis using fluorescein labelled compound relative to oligonucleotide treated control. It counts as ADME, cell-based. Particulars: a549, 8 h.
The test system of data set [7] is A549. In words: Drug uptake in human A549 cells assessed as increase in fluorescence intensity at 1 uM after 24 hrs by fluorescence analysis using fluorescein labelled compound relative to oligonucleotide treated control. The format is ADME, cell-based. Particulars: a549, 24 h.
The subject of data set [8] is A549. In words: Cytotoxicity against human A549 cells assessed as cytoplasmic LDH release at 5 uM after 2 to 24 hrs by spectrophotometry. It counts as cell-based. Particulars: a549, 5 µM. Background: Release of lactate dehydrogenase indicates damage to the cell membrane.
In data set [9] the test system is A549. In words: Antisense activity in human A549 cells assessed as down regulation of p53 protein at 5 uM incubated for 8 hrs in serum-free medium followed by 24 hrs incubation in serum-containing medium by Western blotting analysis. The format is functional. (In general: In western blotting, separated proteins are transferred to a membrane and probed.)

The source made the active and inactive calls. The rule behind the calls is not given here.

In the case of `CC[C@H](C)[C@H](NC(=O)[C@H](CC(N)=O)NC(=O)C(C)(C)NC(C)=O)C(=O)N[C@H](C(=O)NC(C)(C)C(=O)N1CCC[C@H]1C(=O)N[C@@H](CC(C)C)C(=O)N[C@@H](CC(C)C)C(=O)NC(C)(C)C(=O)N1CCC[C@H]1C(=O)N[C@H](C(=O)N[C@@H](CSC1CC(=O)N(CCCCCC(=O)NCCCCCCOP(=O)(O)OC[C@H]2O[C@@H](n3cnc4c(=O)[nH]c(N)nc43)C[C@@H]2OP(O)(=S)OC[C@H]2O[C@@H](n3cnc4c(=O)[nH]c(N)nc43)C[C@@H]2OP(O)(=S)OC[C@H]2O[C@@H](n3cnc4c(N)ncnc43)C[C@@H]2OP(O)(=S)OC[C@H]2O[C@@H](n3cnc4c(=O)[nH]c(N)nc43)C[C@@H]2OP(O)(=S)OC[C@H]2O[C@@H](n3ccc(N)nc3=O)C[C@@H]2OP(O)(=S)OC[C@H]2O[C@@H](n3ccc(N)nc3=O)C[C@@H]2OP(O)(=S)OC[C@H]2O[C@@H](n3cnc4c(N)ncnc43)C[C@@H]2OP(O)(=S)OC[C@H]2O[C@@H](n3cnc4c(=O)[nH]c(N)nc43)C[C@@H]2OP(O)(=S)OC[C@H]2O[C@@H](n3cnc4c(=O)[nH]c(N)nc43)C[C@@H]2OP(O)(=S)OC[C@H]2O[C@@H](n3cnc4c(=O)[nH]c(N)nc43)C[C@@H]2OP(O)(=S)OC[C@H]2O[C@@H](n3cnc4c(=O)[nH]c(N)nc43)C[C@@H]2OP(O)(=S)OC[C@H]2O[C@@H](n3cnc4c(=O)[nH]c(N)nc43)C[C@@H]2OP(O)(=S)OC[C@H]2O[C@@H](n3cnc4c(=O)[nH]c(N)nc43)C[C@@H]2OP(O)(=S)OC[C@H]2O[C@@H](n3cnc4c(N)ncnc43)C[C@@H]2OP(O)(=S)OC[C@H]2O[C@@H](n3cnc4c(=O)[nH]c(N)nc43)C[C@@H]2OP(O)(=S)OC[C@H]2O[C@@H](n3ccc(N)nc3=O)C[C@@H]2OP(O)(=S)OC[C@H]2O[C@@H](n3cnc4c(N)ncnc43)C[C@@H]2OP(O)(=S)OC[C@H]2O[C@@H](n3cnc4c(=O)[nH]c(N)nc43)C[C@@H]2OP(O)(=S)OC[C@H]2O[C@@H](n3cnc4c(=O)[nH]c(N)nc43)C[C@@H]2OP(O)(=S)OC[C@H]2O[C@@H](n3cnc4c(=O)[nH]c(N)nc43)C[C@@H]2O)C1=O)C(N)=O)[C@@H](C)CC)[C@@H](C)CC` (some centres undefined), the Drug uptake result with A549 [1] is reported as “Not Active”.

Take `CC[C@H](C)[C@H](NC(=O)[C@H](CC(N)=O)NC(=O)C(C)(C)NC(C)=O)C(=O)N[C@H](C(=O)NC(C)(C)C(=O)N1CCC[C@H]1C(=O)N[C@@H](CC(C)C)C(=O)N[C@@H](CC(C)C)C(=O)NC(C)(C)C(=O)N1CCC[C@H]1C(=O)N[C@H](C(=O)N[C@@H](CSC1CC(=O)N(CCCCCC(=O)NCCCCCCOP(=O)(O)OC[C@H]2O[C@@H](n3ccc(N)nc3=O)C[C@@H]2OP(O)(=S)OC[C@H]2O[C@@H](n3ccc(N)nc3=O)C[C@@H]2OP(O)(=S)OC[C@H]2O[C@@H](n3ccc(N)nc3=O)C[C@@H]2OP(O)(=S)OC[C@H]2O[C@@H](n3cc(C)c(=O)[nH]c3=O)C[C@@H]2OP(O)(=S)OC[C@H]2O[C@@H](n3cnc4c(=O)[nH]c(N)nc43)C[C@@H]2OP(O)(=S)OC[C@H]2O[C@@H](n3ccc(N)nc3=O)C[C@@H]2OP(O)(=S)OC[C@H]2O[C@@H](n3cc(C)c(=O)[nH]c3=O)C[C@@H]2OP(O)(=S)OC[C@H]2O[C@@H](n3ccc(N)nc3=O)C[C@@H]2OP(O)(=S)OC[C@H]2O[C@@H](n3ccc(N)nc3=O)C[C@@H]2OP(O)(=S)OC[C@H]2O[C@@H](n3ccc(N)nc3=O)C[C@@H]2OP(O)(=S)OC[C@H]2O[C@@H](n3ccc(N)nc3=O)C[C@@H]2OP(O)(=S)OC[C@H]2O[C@@H](n3ccc(N)nc3=O)C[C@@H]2OP(O)(=S)OC[C@H]2O[C@@H](n3ccc(N)nc3=O)C[C@@H]2OP(O)(=S)OC[C@H]2O[C@@H](n3cc(C)c(=O)[nH]c3=O)C[C@@H]2OP(O)(=S)OC[C@H]2O[C@@H](n3cnc4c(=O)[nH]c(N)nc43)C[C@@H]2OP(O)(=S)OC[C@H]2O[C@@H](n3cnc4c(=O)[nH]c(N)nc43)C[C@@H]2OP(O)(=S)OC[C@H]2O[C@@H](n3ccc(N)nc3=O)C[C@@H]2OP(O)(=S)OC[C@H]2O[C@@H](n3cc(C)c(=O)[nH]c3=O)C[C@@H]2OP(O)(=S)OC[C@H]2O[C@@H](n3ccc(N)nc3=O)C[C@@H]2OP(O)(=S)OC[C@H]2O[C@@H](n3ccc(N)nc3=O)C[C@@H]2O)C1=O)C(N)=O)[C@@H](C)CC)[C@@H](C)CC` (some centres undefined): the result in the data set on A549 [2] was inactive. Moreover, the Drug uptake entry is recorded as “Dose-dependent effect” in the data set with A549 [3] and “tde” in the data set on A549 [4] (TDE = time-dependent effect). In addition, the entries for the “fold change (FC)” value with A549 [5], with A549 [6] and in the data set on A549 [7] were 4, 7 and 14, respectively. Besides, the values for the Activity result with A549 [8] and in the data set with A549 [9] were “Non-toxic” and 50%, respectively.

In the case of `Nc1ccn([C@H]2C[C@H](OP(O)(=S)OC[C@H]3O[C@@H](n4cnc5c(N)ncnc54)C[C@@H]3OP(O)(=S)OC[C@H]3O[C@@H](n4cnc5c(=O)[nH]c(N)nc54)C[C@@H]3OP(O)(=S)OC[C@H]3O[C@@H](n4cnc5c(=O)[nH]c(N)nc54)C[C@@H]3OP(O)(=S)OC[C@H]3O[C@@H](n4cnc5c(=O)[nH]c(N)nc54)C[C@@H]3OP(O)(=S)OC[C@H]3O[C@@H](n4cnc5c(=O)[nH]c(N)nc54)C[C@@H]3OP(O)(=S)OC[C@H]3O[C@@H](n4cnc5c(=O)[nH]c(N)nc54)C[C@@H]3OP(O)(=S)OC[C@H]3O[C@@H](n4cnc5c(=O)[nH]c(N)nc54)C[C@@H]3OP(O)(=S)OC[C@H]3O[C@@H](n4cnc5c(N)ncnc54)C[C@@H]3OP(O)(=S)OC[C@H]3O[C@@H](n4cnc5c(=O)[nH]c(N)nc54)C[C@@H]3OP(O)(=S)OC[C@H]3O[C@@H](n4ccc(N)nc4=O)C[C@@H]3OP(O)(=S)OC[C@H]3O[C@@H](n4cnc5c(N)ncnc54)C[C@@H]3OP(O)(=S)OC[C@H]3O[C@@H](n4cnc5c(=O)[nH]c(N)nc54)C[C@@H]3OP(O)(=S)OC[C@H]3O[C@@H](n4cnc5c(=O)[nH]c(N)nc54)C[C@@H]3OP(O)(=S)OC[C@H]3O[C@@H](n4cnc5c(=O)[nH]c(N)nc54)C[C@@H]3O)[C@@H](COP(O)(=S)O[C@H]3C[C@H](n4ccc(N)nc4=O)O[C@@H]3COP(O)(=S)O[C@H]3C[C@H](n4cnc5c(=O)[nH]c(N)nc54)O[C@@H]3COP(O)(=S)O[C@H]3C[C@H](n4cnc5c(N)ncnc54)O[C@@H]3COP(O)(=S)O[C@H]3C[C@H](n4cnc5c(=O)[nH]c(N)nc54)O[C@@H]3COP(O)(=S)O[C@H]3C[C@H](n4cnc5c(=O)[nH]c(N)nc54)O[C@@H]3CO)O2)c(=O)n1` (some centres undefined), the Drug uptake entry in the data set on A549 [3] and in the data set on A549 [4] was “Not Active” each time.

With `CC[C@H](C)[C@H](NC(=O)[C@H](CC(N)=O)NC(=O)C(C)(C)NC(C)=O)C(=O)N[C@H](C(=O)NC(C)(C)C(=O)N1CCC[C@H]1C(=O)N[C@@H](CC(C)C)C(=O)N[C@@H](CC(C)C)C(=O)NC(C)(C)C(=O)N1CCC[C@H]1C(=O)N[C@H](C(=O)N[C@@H](CSSCCCCCCOP(=O)(O)OC[C@H]1O[C@@H](n2ccc(N)nc2=O)C[C@@H]1OP(O)(=S)OC[C@H]1O[C@@H](n2ccc(N)nc2=O)C[C@@H]1OP(O)(=S)OC[C@H]1O[C@@H](n2ccc(N)nc2=O)C[C@@H]1OP(O)(=S)OC[C@H]1O[C@@H](n2cc(C)c(=O)[nH]c2=O)C[C@@H]1OP(O)(=S)OC[C@H]1O[C@@H](n2cnc3c(=O)[nH]c(N)nc32)C[C@@H]1OP(O)(=S)OC[C@H]1O[C@@H](n2ccc(N)nc2=O)C[C@@H]1OP(O)(=S)OC[C@H]1O[C@@H](n2cc(C)c(=O)[nH]c2=O)C[C@@H]1OP(O)(=S)OC[C@H]1O[C@@H](n2ccc(N)nc2=O)C[C@@H]1OP(O)(=S)OC[C@H]1O[C@@H](n2ccc(N)nc2=O)C[C@@H]1OP(O)(=S)OC[C@H]1O[C@@H](n2ccc(N)nc2=O)C[C@@H]1OP(O)(=S)OC[C@H]1O[C@@H](n2ccc(N)nc2=O)C[C@@H]1OP(O)(=S)OC[C@H]1O[C@@H](n2ccc(N)nc2=O)C[C@@H]1OP(O)(=S)OC[C@H]1O[C@@H](n2ccc(N)nc2=O)C[C@@H]1OP(O)(=S)OC[C@H]1O[C@@H](n2cc(C)c(=O)[nH]c2=O)C[C@@H]1OP(O)(=S)OC[C@H]1O[C@@H](n2cnc3c(=O)[nH]c(N)nc32)C[C@@H]1OP(O)(=S)OC[C@H]1O[C@@H](n2cnc3c(=O)[nH]c(N)nc32)C[C@@H]1OP(O)(=S)OC[C@H]1O[C@@H](n2ccc(N)nc2=O)C[C@@H]1OP(O)(=S)OC[C@H]1O[C@@H](n2cc(C)c(=O)[nH]c2=O)C[C@@H]1OP(O)(=S)OC[C@H]1O[C@@H](n2ccc(N)nc2=O)C[C@@H]1OP(O)(=S)OC[C@H]1O[C@@H](n2ccc(N)nc2=O)C[C@@H]1O)C(N)=O)[C@@H](C)CC)[C@@H](C)CC` (some centres undefined), the outcome in the data set with A549 [2] was inactive. Also, the Activity entry was “Non-toxic” in the data set on A549 [8] and 20% in the data set with A549 [9].

Source of the values: ChEMBL document CHEMBL2016565, “Cellular uptake of covalent conjugates of oligonucleotide with membrane-modifying peptide, peptaibol” (Bioorg Med Chem, 2012).
